7 molecules from BindingDB's records for doi:10.1021/jm00133a021 (1981) can be followed below.

SMILES strings stand for the structures.

This assay has as its target Angiotensin-converting enzyme (ACE1). As to the kind of experiment: Concentration required for 50% inhibition of Angiotensin I converting enzyme.
On to `O=C(O)CN1CCCC(CS)C1=O` (configuration not stated) [(3-Mercaptomethyl-2-oxo-piperidin-1-yl)-acetic acid], for which the IC50 was found to be 1 µM.

Take `CCCC(C(=O)O)N1CCCC(CSC(C)=O)C1=O` (configuration not stated) [2-(3-Acetylsulfanylmethyl-2-oxo-piperidin-1-yl)-pentanoic acid]: inhibition was half-maximal at 30 µM (IC50).

Take `CC(=O)SCC1CCN(CC(=O)O)C1=O` (configuration not stated) [(3-Acetylsulfanylmethyl-2-oxo-pyrrolidin-1-yl)-acetic acid]: the IC50 is 33 µM.

Molecule `O=C(O)CN1CCC(CS)C1=O` (configuration not stated) [(3-Mercaptomethyl-2-oxo-pyrrolidin-1-yl)-acetic acid] yielded an IC50 of 3.7 µM.

As for `CC(=O)SCC1CCCN(CC(=O)O)C1=O` (configuration not stated) [(3-Acetylsulfanylmethyl-2-oxo-piperidin-1-yl)-acetic acid], it took 100 µM to reach half-maximal inhibition (IC50).

Molecule `CC(=O)SCC1CCCN(C(C(=O)O)c2ccccc2)C1=O` (configuration not stated) [(3-Acetylsulfanylmethyl-2-oxo-piperidin-1-yl)-phenyl-acetic acid] had an IC50 of 19 µM. Compared with the last molecule, the IC50 is about 5.3-fold lower.

Regarding `CC(=O)SCC1CCCN(C(C)C(=O)O)C1=O` (configuration not stated) [2-(3-Acetylsulfanylmethyl-2-oxo-piperidin-1-yl)-propionic acid], half-maximal inhibition (IC50) was put at 35 µM.

For orientation: IC50 means the point on the concentration scale where inhibition reaches its midpoint.
